Results as given in patent publication US20250382268A1, “METHODS AND COMPOSITIONS FOR SELECTIVELY INHIBITING PATHOGENIC MICROBES” (priority 2019, published 2025).
Converted amounts (≈) assume the structure as drawn. Like-named read-outs stand apart in the source and are kept apart here.

Legend:
Candida glabrata = experiment: microbe, parasite or virus in culture; format: cell-based; conditions: Nakaseomyces glabratus
Bacillus subtilis = experiment: MIC/MBC against Bacillus subtilis strains; format: cell-based
Bacillus thuringiensis = experiment: microbe, parasite or virus in culture; format: cell-based
Burkholderia cenocepacia = experiment: microbe, parasite or virus in culture; format: cell-based
[1] = test system: Burkholderia thailandensis; experiment: microbe, parasite or virus in culture; format: cell-based
HepG2 cells [2] = experiment: Cytotoxicity MTT assay in HepG2 cells; format: cell-based; conditions: Homo sapiens
Method: Additionally, the antimicrobial compounds were analyzed for cytotoxicity. […] We utilized the standard MTT assay (Promega CellTiter 96) and GraphPad Prism 7 software to determine EC50 values for each analogue. Briefly, 20,000 HepG2 cells in 200 μl of the ATCC recommended media were seeded in each well of a 96-well plate with a moisture barrier created in the outermost wells. The cells were allowed to attach overnight at 37° C., and then observed under phase contrast microscopy for proper morphological characteristics. […] Once incubations were complete, the spectrophotometric absorbance of the samples was measured at a wavelength of 595 nm. […] For the HepaRG assay, NoSpin HepaRG™ cells (Lonza, cat #NSHPRG) were thawed and plated with 20,000 cells per well. They were allowed to attach for 4 h (optimal DME profile per Lonza's testing) before dosing following the identical protocol as above.

[3] = test system: branched chain amino acid synthesis pathway; experiment: Transcriptomic (RNAseq) and metabolic mechanism of action studies
S. aureus [4] = experiment: SYTOX green cell permeability assay on S. aureus; format: cell-based, Staphylococcus aureus; conditions: concentrations relative to the MIC, FIG. 1A
S. aureus [5] = experiment: Macromolecular synthesis assay (glucosamine incorporation into cell wall); format: cell-based, Staphylococcus aureus; conditions: dose-response, FIG. 2A-2B
HepG2 cells [6] = experiment: SYTOX permeabilization assay on HepG2 cells; format: cell-based; conditions: up to 4× MIC, FIG. 2C
Staphylococcus aureus = experiment: microbe, parasite or virus in culture

Brc1ccc(Oc2c[nH]c3cc(Br)ccc23)cc1 [174AC, 6-bromo-3-(4-bromophenoxy)-1H-indole]
MIC (Candida glabrata): 25 µg/mL (≈ 68.1 µM) | MBC (Bacillus subtilis): 16 µg/mL (≈ 43.6 µM) | MIC (Bacillus subtilis): 8 µg/mL (≈ 21.8 µM) | MBC (Bacillus thuringiensis): 50 µg/mL (≈ 136 µM) | MIC (Bacillus thuringiensis; Bacillus thuringiensis Berliner ATCC: 10792): 8 µg/mL (≈ 21.8 µM) | MIC (Burkholderia cenocepacia): > 50 µg/mL | MIC [1]: > 50 µg/mL

Brc1ccc2[nH]cc(Sc3ccccc3Br)c2c1 [Compound 174I, 5-bromo-3-((2-bromophenyl)thio)-1H-indole]
EC50 (HepG2 cells [2]): 25.4 µg/mL (≈ 66.3 µM) | mechanism of action by transcriptomic and metabolic studies [3]: branched chain amino acid biosynthesis inhibition | cell permeability by SYTOX green fluorescence (S. aureus [4]): clear dose-dependent increase in permeability | cell wall synthesis inhibition (glucosamine incorporation) (S. aureus [5]): substantial cell wall synthesis inhibition | permeabilization of HepG2 cells (SYTOX) (HepG2 cells [6]): no permeabilization of HepG2 cells

Nc1ccccc1Sc1c[nH]c2ccc(Br)cc12 [Compound 174M, 2-((5-bromo-1H-indol-3-yl)thio)aniline]
EC50 (HepG2 cells [2]): 26.5 µg/mL (≈ 83 µM) | mechanism of action by transcriptomic and metabolic studies [3]: branched chain amino acid biosynthesis inhibition | MIC (Staphylococcus aureus; MRSA, read-out: Staphylococcus aureus MIC, MRSA strain HM-467): 12.5 µg/mL (≈ 39.2 µM) | MIC (Staphylococcus aureus; MRSA, read-out: Staphylococcus aureus MIC, MRSA strain NK-41886): 12.5 µg/mL (≈ 39.2 µM) | MIC (Staphylococcus aureus; MRSA, read-out: Staphylococcus aureus MIC, MRSA strain NR-13533): 12.5 µg/mL (≈ 39.2 µM) | MIC (Staphylococcus aureus; MRSA, read-out: Staphylococcus aureus MIC, MRSA strain NR-28983): 12.5 µg/mL (≈ 39.2 µM) | MIC (Staphylococcus aureus; MRSA, read-out: Staphylococcus aureus MIC, MRSA strain NR-41875): 12.5 µg/mL (≈ 39.2 µM) | MIC (Staphylococcus aureus; MRSA, read-out: Staphylococcus aureus MIC, MRSA strain NR-41876): 12.5 µg/mL (≈ 39.2 µM) | MIC (Staphylococcus aureus; MRSA, read-out: Staphylococcus aureus MIC, MRSA strain NR-41877): 25 µg/mL (≈ 78.3 µM) | MIC (Staphylococcus aureus; MRSA, read-out: Staphylococcus aureus MIC, MRSA strain NR-41878): 12.5 µg/mL (≈ 39.2 µM) | MIC (Staphylococcus aureus; read-out: Staphylococcus aureus MIC, VSSA NR-49121): 12.5 µg/mL (≈ 39.2 µM) | permeabilization of HepG2 cells (SYTOX) (HepG2 cells [6]): no permeabilization of HepG2 cells

CN[C@H](CC(C)C)C(=O)N[C@H]1C(=O)N[C@@H](CC(N)=O)C(=O)N[C@H]2C(=O)N[C@H]3C(=O)N[C@H](C(=O)N[C@H](C(=O)O)c4cc(O)cc(O)c4-c4cc3ccc4O)[C@H](O)c3ccc(c(Cl)c3)Oc3cc2cc(c3O[C@@H]2O[C@H](CO)[C@@H](O)[C@H](O)[C@H]2O[C@H]2C[C@](C)(N)[C@H](O)[C@H](C)O2)Oc2ccc(cc2Cl)[C@H]1O [vancomycin, reference compound]
cell wall synthesis inhibition (glucosamine incorporation) (S. aureus [5]): increasingly inhibits glucosamine from incorporating into a cell wall
